Assay results from ChEMBL document CHEMBL5150049, “The discovery of (1R, 3R)-1-(3-chloro-5-fluorophenyl)-3-(hydroxymethyl)-1,2,3,4-tetrahydroisoquinoline-6-carbonitrile, a potent and selective agonist of human transient receptor potential cation channel subfamily m member 5 (TRPM5) and evaluation of as a potential gastrointestinal prokinetic agent” (Bioorg Med Chem, 2022).
In brackets after ≈: the same amount, converted by molar mass.

Tests used:
[1] = Oral bioavailability in C57BL/6 mouse at 30 mg/kg; format: ADME, organism-based; conditions: in vivo
[2] = Area under […] in C57BL/6 mouse at 300 mg/kg administered twice a day; format: ADME, organism-based; conditions: in vivo
[3] = AUC (0 to infinity) in C57BL/6 mouse at 300 mg/kg, po; format: ADME, organism-based; set-up: time infinity, dose 300 mg/kg, route po; conditions: in vivo
[4] = AUC (0 to infinity) in C57BL/6 mouse at 1 mg/kg, iv; format: ADME, organism-based; set-up: time infinity, dose 1 mg/kg, route iv; conditions: in vivo
[5] = molecular target: Transient receptor potential cation channel subfamily M member 4 (Homo sapiens, UniProt Q8TD43); test: Agonist activity at human TRPM4 expressed in CHO-K1 cells assessed as increase in relative fluorescence unit by measuring membrane potential by FLIPR assay; format: cell-based
Sequence of Transient receptor potential cation channel subfamily M member 4 (Q8TD43 whole entry): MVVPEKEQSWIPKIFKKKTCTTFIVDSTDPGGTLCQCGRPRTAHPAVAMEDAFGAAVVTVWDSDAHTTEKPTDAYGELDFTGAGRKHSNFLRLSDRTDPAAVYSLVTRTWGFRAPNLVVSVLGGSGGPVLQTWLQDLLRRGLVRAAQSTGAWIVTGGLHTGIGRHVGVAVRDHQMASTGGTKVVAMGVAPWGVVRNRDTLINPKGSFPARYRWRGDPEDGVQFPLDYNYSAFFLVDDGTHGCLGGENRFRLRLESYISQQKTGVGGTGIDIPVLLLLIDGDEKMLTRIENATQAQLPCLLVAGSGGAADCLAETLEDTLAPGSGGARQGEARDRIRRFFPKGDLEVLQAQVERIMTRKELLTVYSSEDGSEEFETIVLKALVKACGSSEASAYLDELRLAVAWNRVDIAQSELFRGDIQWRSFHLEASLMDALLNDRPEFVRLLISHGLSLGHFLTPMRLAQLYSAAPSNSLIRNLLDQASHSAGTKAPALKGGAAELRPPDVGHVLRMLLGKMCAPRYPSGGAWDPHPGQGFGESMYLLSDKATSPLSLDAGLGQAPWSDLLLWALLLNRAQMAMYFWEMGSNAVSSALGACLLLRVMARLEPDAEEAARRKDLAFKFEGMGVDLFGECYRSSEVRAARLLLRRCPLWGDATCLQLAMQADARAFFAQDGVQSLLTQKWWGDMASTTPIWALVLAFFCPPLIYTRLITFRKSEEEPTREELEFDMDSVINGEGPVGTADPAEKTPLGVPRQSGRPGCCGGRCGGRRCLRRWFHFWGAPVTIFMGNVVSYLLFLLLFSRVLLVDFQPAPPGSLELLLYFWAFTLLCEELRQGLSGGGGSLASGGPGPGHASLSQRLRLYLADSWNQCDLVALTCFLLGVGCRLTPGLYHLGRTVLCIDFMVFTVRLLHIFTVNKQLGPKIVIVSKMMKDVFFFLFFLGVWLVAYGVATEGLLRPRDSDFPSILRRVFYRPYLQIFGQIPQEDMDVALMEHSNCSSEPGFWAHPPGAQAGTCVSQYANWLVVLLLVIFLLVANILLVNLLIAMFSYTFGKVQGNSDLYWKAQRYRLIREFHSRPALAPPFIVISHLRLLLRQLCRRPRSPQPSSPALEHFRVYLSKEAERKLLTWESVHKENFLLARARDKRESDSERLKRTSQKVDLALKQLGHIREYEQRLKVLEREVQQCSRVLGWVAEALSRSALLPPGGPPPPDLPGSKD

[6] = Oral bioavailability in C57BL/6 mouse at 10 mg/kg; format: ADME, organism-based; conditions: in vivo
[7] = Unbound fraction in human plasma; format: ADME, cell-free
[8] = Apparent permeability across basolateral to apical side in human Caco-2 cells; format: ADME, cell-based
[9] = Oral bioavailability in C57BL/6 mouse at 300 mg/kg; format: ADME, organism-based; conditions: in vivo
[10] = Half-life in C57BL/6 mouse at 1 mg/kg, iv; format: ADME, organism-based; conditions: in vivo
[11] = Cmax in C57BL/6 mouse at 10 mg/kg, po; format: ADME, organism-based; set-up: dose 10 mg/kg, route po; conditions: in vivo
[12] = Solubility of the compound in JP2 solution at pH 6.8; format: physicochemical
[13] = AUC (0 to infinity) in C57BL/6 mouse at 10 mg/kg, po; format: ADME, organism-based; set-up: time infinity, dose 10 mg/kg, route po; conditions: in vivo
[14] = Cmax in C57BL/6 mouse at 300 mg/kg, po; format: ADME, organism-based; set-up: dose 300 mg/kg, route po; conditions: in vivo
[15] = Oral bioavailability in C57BL/6 mouse at 100 mg/kg; format: ADME, organism-based; conditions: in vivo
[16] = Apparent permeability across apical to basolateral side in human Caco-2 cells; format: ADME, cell-based
[17] = Metabolic stability in human liver microsomes assessed as half life; format: ADME, Microsome
[18] = Unbound fraction in mouse plasma; format: ADME, cell-free
[19] = Area under […] in C57BL/6 mouse at 100 mg/kg administered twice a day; format: ADME, organism-based; conditions: in vivo
[20] = Volume of distribution at steady state in C57BL/6 mouse at 1 mg/kg, iv; format: ADME, organism-based; conditions: in vivo
[21] = Cmax in C57BL/6 mouse at 100 mg/kg, po; format: ADME, organism-based; set-up: dose 100 mg/kg, route po; conditions: in vivo
[22] = AUC (0 to infinity) in C57BL/6 mouse at 100 mg/kg, po; format: ADME, organism-based; set-up: time infinity, dose 100 mg/kg, route po; conditions: in vivo
[23] = Half-life in C57BL/6 mouse at 30 mg/kg, po; format: ADME, organism-based; conditions: in vivo
[24] = molecular target: T1, Transient receptor potential cation channel subfamily M member 5 (Homo sapiens, UniProt Q9NZQ8); test: Agonist activity at human TRPM5 expressed in CHO-K1 cells assessed as increase in relative fluorescence unit measured for 2 mins by FLIPR based membrane potential assay; format: cell-based
T1 sequence (Q9NZQ8 whole entry): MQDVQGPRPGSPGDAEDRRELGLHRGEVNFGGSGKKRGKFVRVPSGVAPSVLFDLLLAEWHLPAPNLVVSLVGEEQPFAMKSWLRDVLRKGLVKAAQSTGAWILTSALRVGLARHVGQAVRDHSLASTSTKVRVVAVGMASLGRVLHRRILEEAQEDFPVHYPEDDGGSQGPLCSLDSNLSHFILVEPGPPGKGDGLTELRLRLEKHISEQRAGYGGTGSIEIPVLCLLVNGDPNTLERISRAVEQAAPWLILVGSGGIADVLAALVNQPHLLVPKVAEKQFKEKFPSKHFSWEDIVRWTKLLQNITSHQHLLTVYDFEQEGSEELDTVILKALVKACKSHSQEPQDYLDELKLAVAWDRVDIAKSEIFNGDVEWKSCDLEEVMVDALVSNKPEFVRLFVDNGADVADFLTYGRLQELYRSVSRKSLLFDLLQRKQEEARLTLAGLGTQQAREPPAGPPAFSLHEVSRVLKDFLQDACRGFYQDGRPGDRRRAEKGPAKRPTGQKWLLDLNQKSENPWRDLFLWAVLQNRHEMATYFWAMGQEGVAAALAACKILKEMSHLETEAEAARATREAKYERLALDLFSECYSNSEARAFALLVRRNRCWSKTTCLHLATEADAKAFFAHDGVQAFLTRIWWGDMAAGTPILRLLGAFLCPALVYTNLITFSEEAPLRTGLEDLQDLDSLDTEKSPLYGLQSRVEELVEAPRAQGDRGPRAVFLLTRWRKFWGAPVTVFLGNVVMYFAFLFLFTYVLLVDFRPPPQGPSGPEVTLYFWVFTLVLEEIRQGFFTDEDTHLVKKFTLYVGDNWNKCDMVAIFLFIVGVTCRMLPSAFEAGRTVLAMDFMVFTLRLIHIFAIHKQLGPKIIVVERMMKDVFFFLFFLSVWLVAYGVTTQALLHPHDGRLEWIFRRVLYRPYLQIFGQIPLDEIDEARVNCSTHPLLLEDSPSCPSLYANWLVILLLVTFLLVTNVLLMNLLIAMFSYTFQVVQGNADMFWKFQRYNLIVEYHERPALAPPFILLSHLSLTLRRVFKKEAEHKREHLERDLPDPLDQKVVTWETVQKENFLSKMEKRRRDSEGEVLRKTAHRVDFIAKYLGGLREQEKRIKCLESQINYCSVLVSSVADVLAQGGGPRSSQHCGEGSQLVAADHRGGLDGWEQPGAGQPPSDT

[25] = Half-life in C57BL/6 mouse at 300 mg/kg, po; format: ADME, organism-based; conditions: in vivo
[26] = Cmax in C57BL/6 mouse at 30 mg/kg, po; format: ADME, organism-based; set-up: dose 30 mg/kg, route po; conditions: in vivo
[27] = Half-life in C57BL/6 mouse at 100 mg/kg, po; format: ADME, organism-based; conditions: in vivo
[28] = Solubility of the compound in JP1 solution at pH 1.2; format: physicochemical
[29] = Half-life in C57BL/6 mouse at 10 mg/kg, po; format: ADME, organism-based; conditions: in vivo
[30] = Clearance in C57BL/6 mouse at 1 mg/kg, iv; format: ADME, organism-based; conditions: in vivo
[31] = Area under […] in C57BL/6 mouse at 30 mg/kg administered twice a day; format: ADME, organism-based; conditions: in vivo
[32] = AUC (0 to infinity) in C57BL/6 mouse at 30 mg/kg, po; format: ADME, organism-based; set-up: time infinity, dose 30 mg/kg, route po; conditions: in vivo
[33] = Solubility of the compound in JP1 solution at pH 1.2 measured after 3 hrs by UHPLC analysis; format: physicochemical
[34] = system: MDR1 (multidrug resistance mutation-1 as written); test: Apparent permeability across basolateral to apical side in LLC-PK1 cells overexpressing multidrug resistance mutation-1; format: ADME, cell-based, Sus scrofa; conditions: pig
[35] = Solubility of the compound in JP2 solution at pH 6.8 measured after 3 hrs by UHPLC analysis; format: physicochemical
[36] = system: MDR1 (multidrug resistance mutation-1 as written); test: Apparent permeability across apical to basolateral side in LLC-PK1 cells overexpressing multidrug resistance mutation-1; format: ADME, cell-based, Sus scrofa; conditions: pig
[37] = molecular target: Transient receptor potential cation channel subfamily M member 8 (Homo sapiens, UniProt Q7Z2W7); test: Agonist activity at human TRPM8 expressed in HEK cells assessed as increase in intracellular calcium level measured for 5 mins by FLIPR assay; format: cell-based
Sequence of Transient receptor potential cation channel subfamily M member 8 (Q7Z2W7 whole entry): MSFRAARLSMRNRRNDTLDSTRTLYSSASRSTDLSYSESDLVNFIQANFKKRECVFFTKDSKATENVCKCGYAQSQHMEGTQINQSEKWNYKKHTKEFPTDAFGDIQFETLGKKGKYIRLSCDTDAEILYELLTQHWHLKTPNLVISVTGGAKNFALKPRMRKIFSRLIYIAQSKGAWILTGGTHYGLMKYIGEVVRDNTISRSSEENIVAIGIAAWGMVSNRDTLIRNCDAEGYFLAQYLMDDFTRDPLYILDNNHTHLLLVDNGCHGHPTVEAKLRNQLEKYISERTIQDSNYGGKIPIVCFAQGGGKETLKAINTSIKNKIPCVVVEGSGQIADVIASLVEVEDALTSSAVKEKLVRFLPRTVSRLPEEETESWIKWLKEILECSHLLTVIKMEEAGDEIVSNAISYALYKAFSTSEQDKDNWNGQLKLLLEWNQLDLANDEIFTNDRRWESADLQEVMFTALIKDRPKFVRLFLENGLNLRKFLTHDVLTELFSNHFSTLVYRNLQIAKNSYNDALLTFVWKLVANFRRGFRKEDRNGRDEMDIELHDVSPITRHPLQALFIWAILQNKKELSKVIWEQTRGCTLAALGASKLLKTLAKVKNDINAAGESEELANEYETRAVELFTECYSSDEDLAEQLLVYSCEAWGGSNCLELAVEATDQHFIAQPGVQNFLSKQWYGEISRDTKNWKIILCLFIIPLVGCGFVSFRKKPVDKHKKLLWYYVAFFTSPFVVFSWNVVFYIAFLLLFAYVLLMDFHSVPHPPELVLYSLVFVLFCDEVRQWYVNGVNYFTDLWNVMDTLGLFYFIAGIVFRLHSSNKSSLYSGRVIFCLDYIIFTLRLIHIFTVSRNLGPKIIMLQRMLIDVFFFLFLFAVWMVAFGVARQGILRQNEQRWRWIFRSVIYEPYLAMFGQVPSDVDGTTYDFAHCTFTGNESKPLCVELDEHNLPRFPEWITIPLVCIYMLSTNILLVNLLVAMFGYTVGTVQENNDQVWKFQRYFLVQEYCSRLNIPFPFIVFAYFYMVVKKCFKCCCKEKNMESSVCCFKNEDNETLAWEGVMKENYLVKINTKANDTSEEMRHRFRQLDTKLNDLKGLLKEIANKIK

[38] = molecular target: T2, Transient receptor potential cation channel subfamily M member 5 (Mus musculus, UniProt Q9JJH7); test: Agonist activity at mouse TRPM5 expressed in CHO-K1 cells; format: cell-based
T2 sequence (Q9JJH7 whole entry): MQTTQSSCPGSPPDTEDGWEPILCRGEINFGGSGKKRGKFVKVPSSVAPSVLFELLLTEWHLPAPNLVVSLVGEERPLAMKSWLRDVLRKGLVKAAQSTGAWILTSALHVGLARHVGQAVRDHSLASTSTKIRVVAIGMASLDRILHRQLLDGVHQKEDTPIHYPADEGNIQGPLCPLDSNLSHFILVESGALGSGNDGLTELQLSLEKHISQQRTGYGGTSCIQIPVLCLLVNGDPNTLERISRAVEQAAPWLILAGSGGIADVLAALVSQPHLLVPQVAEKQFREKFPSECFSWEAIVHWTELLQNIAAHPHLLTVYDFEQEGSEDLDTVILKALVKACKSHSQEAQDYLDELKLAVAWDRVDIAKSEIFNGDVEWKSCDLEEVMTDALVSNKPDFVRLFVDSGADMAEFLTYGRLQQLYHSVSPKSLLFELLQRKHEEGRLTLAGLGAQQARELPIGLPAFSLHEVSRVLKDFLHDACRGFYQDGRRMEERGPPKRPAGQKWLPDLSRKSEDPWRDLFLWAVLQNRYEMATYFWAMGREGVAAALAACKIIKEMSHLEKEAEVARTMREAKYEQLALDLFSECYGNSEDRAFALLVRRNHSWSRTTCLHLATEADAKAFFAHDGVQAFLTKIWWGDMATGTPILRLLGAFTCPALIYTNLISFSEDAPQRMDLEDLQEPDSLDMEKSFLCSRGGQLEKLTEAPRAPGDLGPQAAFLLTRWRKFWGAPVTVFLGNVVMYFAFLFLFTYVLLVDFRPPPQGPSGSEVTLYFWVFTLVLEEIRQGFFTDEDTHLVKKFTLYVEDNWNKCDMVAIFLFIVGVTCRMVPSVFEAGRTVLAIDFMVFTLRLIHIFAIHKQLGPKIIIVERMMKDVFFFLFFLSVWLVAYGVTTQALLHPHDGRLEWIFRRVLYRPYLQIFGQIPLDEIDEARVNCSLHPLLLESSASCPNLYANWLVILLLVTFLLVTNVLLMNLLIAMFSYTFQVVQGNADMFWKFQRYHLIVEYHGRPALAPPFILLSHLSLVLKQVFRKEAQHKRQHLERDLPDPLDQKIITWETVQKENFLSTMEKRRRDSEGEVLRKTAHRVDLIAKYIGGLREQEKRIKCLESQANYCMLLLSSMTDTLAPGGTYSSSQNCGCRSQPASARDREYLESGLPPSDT

[39] = molecular target: Transient receptor potential cation channel subfamily V member 1 (Homo sapiens, UniProt Q8NER1); test: Agonist activity at human TRPV1
Sequence of Transient receptor potential cation channel subfamily V member 1 (Q8NER1 whole entry): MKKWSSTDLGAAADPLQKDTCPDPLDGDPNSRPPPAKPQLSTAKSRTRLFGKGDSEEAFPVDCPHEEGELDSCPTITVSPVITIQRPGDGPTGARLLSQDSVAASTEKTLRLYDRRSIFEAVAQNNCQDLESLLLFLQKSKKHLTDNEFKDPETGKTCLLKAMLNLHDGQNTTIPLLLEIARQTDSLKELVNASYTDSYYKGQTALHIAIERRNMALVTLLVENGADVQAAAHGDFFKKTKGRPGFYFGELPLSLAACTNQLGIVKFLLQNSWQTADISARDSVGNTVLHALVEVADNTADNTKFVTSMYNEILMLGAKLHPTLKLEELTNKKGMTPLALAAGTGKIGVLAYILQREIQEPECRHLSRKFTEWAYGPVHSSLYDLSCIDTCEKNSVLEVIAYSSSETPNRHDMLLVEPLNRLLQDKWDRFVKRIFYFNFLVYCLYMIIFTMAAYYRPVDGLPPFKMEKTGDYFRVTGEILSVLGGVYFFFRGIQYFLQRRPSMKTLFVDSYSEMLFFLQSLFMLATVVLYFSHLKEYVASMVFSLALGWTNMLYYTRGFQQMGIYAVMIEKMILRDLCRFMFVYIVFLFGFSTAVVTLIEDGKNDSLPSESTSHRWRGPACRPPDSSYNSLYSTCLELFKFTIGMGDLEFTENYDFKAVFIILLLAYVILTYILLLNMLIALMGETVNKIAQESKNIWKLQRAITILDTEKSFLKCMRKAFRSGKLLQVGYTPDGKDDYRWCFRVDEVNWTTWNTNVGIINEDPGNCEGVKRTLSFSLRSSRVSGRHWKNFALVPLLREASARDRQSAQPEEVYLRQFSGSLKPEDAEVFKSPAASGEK

[40] = molecular target: Transient receptor potential cation channel subfamily V member 4 (Homo sapiens, UniProt Q9HBA0); test: Agonist activity at human TRPV4
[41] = molecular target: Transient receptor potential cation channel subfamily A member 1 (Homo sapiens, UniProt O75762); test: Agonist activity at human TRPA1 expressed in HEK cells assessed as increase in intracellular calcium level measured for 5 mins by FLIPR assay; format: cell-based
Sequence of Transient receptor potential cation channel subfamily A member 1 (O75762 whole entry): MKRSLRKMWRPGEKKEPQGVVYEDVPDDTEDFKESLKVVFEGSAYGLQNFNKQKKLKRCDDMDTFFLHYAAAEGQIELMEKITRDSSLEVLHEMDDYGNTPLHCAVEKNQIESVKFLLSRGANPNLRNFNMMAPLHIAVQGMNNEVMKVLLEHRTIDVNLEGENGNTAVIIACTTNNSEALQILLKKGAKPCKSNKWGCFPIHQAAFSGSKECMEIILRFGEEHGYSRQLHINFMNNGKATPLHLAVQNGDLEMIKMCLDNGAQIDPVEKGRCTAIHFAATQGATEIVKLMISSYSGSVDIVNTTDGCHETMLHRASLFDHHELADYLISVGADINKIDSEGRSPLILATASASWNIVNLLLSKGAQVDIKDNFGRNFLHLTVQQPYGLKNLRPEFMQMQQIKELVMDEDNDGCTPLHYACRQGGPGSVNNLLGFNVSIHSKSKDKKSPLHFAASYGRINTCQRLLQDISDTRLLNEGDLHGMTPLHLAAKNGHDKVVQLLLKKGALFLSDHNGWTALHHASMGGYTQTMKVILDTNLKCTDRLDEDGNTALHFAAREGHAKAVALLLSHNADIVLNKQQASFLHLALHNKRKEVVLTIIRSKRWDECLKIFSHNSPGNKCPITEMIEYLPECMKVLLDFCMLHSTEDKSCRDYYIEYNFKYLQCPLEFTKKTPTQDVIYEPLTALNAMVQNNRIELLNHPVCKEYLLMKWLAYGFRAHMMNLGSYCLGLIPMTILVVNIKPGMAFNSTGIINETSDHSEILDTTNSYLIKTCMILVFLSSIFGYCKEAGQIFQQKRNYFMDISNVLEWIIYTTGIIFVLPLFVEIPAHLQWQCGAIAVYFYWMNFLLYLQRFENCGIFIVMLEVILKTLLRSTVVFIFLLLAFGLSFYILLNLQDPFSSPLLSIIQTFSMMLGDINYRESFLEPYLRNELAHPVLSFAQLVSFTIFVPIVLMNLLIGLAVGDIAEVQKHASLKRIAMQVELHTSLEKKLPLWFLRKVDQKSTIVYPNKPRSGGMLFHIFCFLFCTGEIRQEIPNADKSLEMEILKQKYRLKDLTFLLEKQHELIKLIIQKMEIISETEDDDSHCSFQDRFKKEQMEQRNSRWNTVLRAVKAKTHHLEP

N#Cc1ccc2c(c1)C[C@H](CO)N[C@@H]2c1cc(F)cc(Cl)c1 (racemic)
F [1]: 74%
AURC [2]: 17.3 h
AUC(0-inf) [3]: 49400 ng·h/mL
AUC(0-inf) ([4]; C57BL/6, mouse): 181 ng·h/mL
EC50 [5]: 11.5 µM
F [6]: 44%
fraction unbound [7]: 0.121
Papp B→A [8]: 15.4 ×10⁻⁶ cm/s
bioavailability [9]: 100%
half-life ([10]; C57BL/6, mouse): 1.1 h
Cmax [11]: 290 ng/mL
solubility [12]: 201 µg/mL (≈ 0.635 mM)
AUC [13]: 848 ng·h/mL
Cmax [14]: 6020 ng/mL
F [15]: 100%
Papp A→B [16]: 10.3 ×10⁻⁶ cm/s
half-life ([17]; liver microsomes): 1.53 h
fraction unbound [18]: 0.115
AURC [19]: 12.3 h
Vd ([20]; C57BL/6, mouse, read-out: Vdss): 4.41 L/kg
Cmax [21]: 3667 ng/mL
AUC [22]: 28050 ng·h/mL
t1/2 ([23]; mouse, po, 30 mg/kg): 4.4 h
EC50 [24]: 0.126 µM
half-life [25]: 5.5 h
Cmax [26]: 700 ng/mL
half-life ([27]; C57BL/6, mouse): 5.1 h
solubility [28]: 25300 µg/mL (≈ 79.7 mM)
half-life ([29]; C57BL/6, mouse): 2.9 h
clearance [30]: 92.3 mL/min/kg
AURC [31]: 6.7 h
AUC [32]: 3676 ng·h/mL

N#Cc1ccc2c(c1)C[C@H](CO)N[C@@H]2c1cc(F)cc(Cl)c1
F [1]: 20.3%
solubility at 3 h [33]: 3500 µg/mL (≈ 11 mM)
Papp B→A [34]: 13.7 ×10⁻⁶ cm/s
AUC ([4]; mouse): 177.1 ng·h/mL
EC50 [5]: 52.5 µM
F [6]: 16.6%
solubility at 3 h [35]: 43 µg/mL (≈ 0.136 mM)
t1/2 ([10]; mouse, iv, 1 mg/kg): 0.8 h
Cmax [11]: 101 ng/mL
AUC [13]: 395 ng·h/mL
F [15]: 49%
Papp A→B [36]: 26.6 ×10⁻⁶ cm/s
t1/2 ([17]; microsomes): 1.48 h
Vdss ([20]; mouse, iv, 1 mg/kg): 3.507 L/kg
Cmax [21]: 1396 ng/mL
EC50 [37]: > 15.8 µM
AUC [22]: 8591 ng·h/mL
half-life ([23]; C57BL/6, mouse): 5.4 h
EC50 [24]: 0.0794 µM
Cmax [26]: 301 ng/mL
t1/2 ([27]; mouse, po, 100 mg/kg): 6.3 h
t1/2 ([29]; mouse, po, 10 mg/kg): 4.3 h
EC50 [38]: 0.251 µM
EC50 [39]: > 15.8 µM
EC50 [40]: > 15.8 µM
EC50 [41]: > 15.8 µM
AUC [32]: 1716 ng·h/mL
